Measurements as given in publication PMC7689250, “Synthetic Peptide Libraries Designed From a Minimal Alpha-Helical Domain of AS-48-Bacteriocin Homologs Exhibit Potent Antibacterial Activity” (Frontiers in Microbiology, 2020).
Like-named read-outs stand apart in the source and are kept apart here. Residues, ends and D or L forms follow the SMILES beside them.

Assays:
E. coli (BL21) = type: cell-based, Escherichia coli; settings: for MBC: BL21; for MIC: BL21, 16 h
Description: (§1) Peptides were screened against Escherichia coli (BL21), Streptococcus pyogenes (M1T1 5448, hereby referred to as M1), Pseudomonas aeruginosa (PAO1), and Staphylococcus aureus (USA300). Overnight bacterial cultures were grown in optimal media for each species: Luria-Bertani (LB) broth for E. coli, P. aeruginosa, and S. aureus, and Todd-Hewitt (TH) broth for S. pyogenes. Cultures were pelleted and re-suspended in Mueller-Hinton (MH) broth for peptide screens or minimal inhibitory concentration (MIC) assays, with 1 × 10^6 CFU/mL bacteria added per well ([Wiegand et al., 2008]). MICs for each parent peptide were identified against each bacterial strain as previously described ([Fields et al., 2018]). Members of each peptide library were screened against each bacterial strain at half of the MIC of the corresponding parent peptide to identify library members with increased antimicrobial activity relative to the parent peptide. […] Minimal bactericidal concentrations (MBCs) were determined following the respective MIC assays by plating aliquots from wells corresponding to each peptide concentration from the 96-well plate used for the MIC on species-appropriate agar. Plates were incubated at 37°C overnight, and MBCs were identified as the lowest concentrations of peptide at which no colonies were obtained. A Synergy H1 Microplate Reader (BioTek, Winooski, VT, United States) was used to determine the MICs and identify peptides with greater antimicrobial activity than the corresponding parent peptide by measuring OD 600 of the bacterial cultures in 96-well microtiter plates.

S. pyogenes (M1) = type: cell-based, Streptococcus pyogenes; settings: for MBC: M1
Description: as §1

S. aureus (USA300) = type: cell-based, Staphylococcus aureus; settings: for MBC: USA300; for MIC: USA300, 16 h
Description: as §1

P. aeruginosa (PAO1) = type: cell-based, Pseudomonas aeruginosa; settings: for MBC: PAO1; for MIC: PAO1, 16 h
Description: as §1

MIC (E. coli (BL21)) [µM]	MIC (S. pyogenes (M1); S. pyogenes M1) [µM]	MIC (S. aureus (USA300)) [µM]	MIC (P. aeruginosa (PAO1)) [µM]	MIC (S. pyogenes (M1); M1, 16 h) [µM]	Structure (SMILES)	MBC (E. coli (BL21)) [µM]	MBC (S. pyogenes (M1)) [µM]	MBC (S. aureus (USA300)) [µM]	MBC (P. aeruginosa (PAO1)) [µM]
4	0.5	>128	64		CC[C@H](C)[C@H](NC(=O)[C@H](CCCCN)NC(=O)CNC(=O)[C@H](Cc1ccccc1)NC(=O)[C@H](CCCCN)NC(=O)[C@H](CCCNC(=N)N)NC(=O)[C@H](CC(C)C)NC(=O)[C@H](Cc1ccc(O)cc1)NC(=O)[C@H](CCC(=O)O)NC(=O)[C@H](CC(C)C)NC(=O)[C@H](CC(C)C)NC(=O)[C@H](CCC(=O)O)NC(=O)[C@H](CCCCN)NC(=O)[C@@H](NC(=O)[C@H](CC(C)C)NC(=O)[C@H](CCCNC(=N)N)NC(=O)[C@H](CCC(N)=O)NC(=O)[C@H](C)NC(=O)CNC(=O)[C@H](C)N)[C@@H](C)O)C(=O)N[C@@H](C)C(=O)N[C@@H](CCCNC(=N)N)C(=O)N[C@@H](CCCCN)C(=O)N[C@@H](C)C(=O)N[C@@H](Cc1c[nH]c2ccccc12)C(=O)O [Syn-xiamencin-7] (H-AGAQRLTKELLEYLRKFGKIARKAW-OH; N-terminus and C-terminus assumed)	4	0.5	>128	128
8		>128	16	8	CC[C@H](C)[C@H](NC(=O)[C@H](CCC(=O)O)NC(=O)[C@H](CCCNC(=N)N)NC(=O)[C@H](CCCNC(=N)N)NC(=O)[C@H](CC(C)C)NC(=O)[C@H](Cc1ccc(O)cc1)NC(=O)[C@H](C)NC(=O)[C@H](CCCCN)NC(=O)[C@@H](NC(=O)[C@@H](NC(=O)[C@H](CCC(N)=O)NC(=O)[C@H](CCCNC(=N)N)NC(=O)CNC(=O)[C@H](C)N)[C@@H](C)O)[C@@H](C)CC)C(=O)N[C@@H](CCCNC(=N)N)C(=O)N[C@@H](CCCCN)C(=O)N[C@@H](CCCNC(=N)N)C(=O)NCC(=O)N[C@@H](CCCNC(=N)N)C(=O)N[C@@H](CCCCN)C(=O)N[C@@H](C)C(=O)N[C@H](C(=O)N[C@H](C(=O)N[C@@H](C)C(=O)N[C@@H](Cc1c[nH]c2ccccc12)C(=O)O)[C@@H](C)CC)C(C)C [Syn-sordellicin-1] (H-AGRQTIKAYLRREIRKRGRKAVIAW-OH; N-terminus and C-terminus assumed)	8	8	>128	16
32		>128	>128	8	CC[C@H](C)[C@H](NC(=O)[C@H](CCCCN)NC(=O)[C@H](CCCCN)NC(=O)[C@H](CCCCN)NC(=O)[C@H](CC(C)C)NC(=O)[C@H](Cc1ccccc1)NC(=O)[C@H](CCC(N)=O)NC(=O)[C@H](CCCNC(=N)N)NC(=O)[C@@H](NC(=O)[C@@H](NC(=O)[C@H](CCC(=O)O)NC(=O)[C@H](CCCCN)NC(=O)CNC(=O)[C@H](C)N)[C@@H](C)O)[C@@H](C)CC)C(=O)N[C@@H](CCC(N)=O)C(=O)N[C@@H](CCC(=O)O)C(=O)N[C@@H](CCCCN)C(=O)NCC(=O)N[C@@H](CCCCN)C(=O)N[C@@H](CCCNC(=N)N)C(=O)N[C@@H](C)C(=O)N[C@H](C(=O)N[C@H](C(=O)N[C@@H](C)C(=O)N[C@@H](Cc1c[nH]c2ccccc12)C(=O)O)[C@@H](C)CC)[C@@H](C)O [Syn-larvacin-1] (H-AGKETIRQFLKKKIQEKGKRATIAW-OH; N-terminus and C-terminus assumed)	>128	64	>128	>128
4		8	16	8	CC[C@H](C)[C@H](NC(=O)[C@H](CCCCN)NC(=O)[C@H](CCCCN)NC(=O)[C@H](Cc1c[nH]c2ccccc12)NC(=O)[C@H](CCC(=O)O)NC(=O)[C@H](CC(N)=O)NC(=O)[C@@H](NC(=O)[C@@H](NC(=O)[C@H](CCCCN)NC(=O)[C@H](CCCCN)NC(=O)[C@H](CC(C)C)NC(=O)[C@H](CCCNC(=N)N)NC(=O)[C@H](CC(N)=O)NC(=O)[C@H](Cc1ccccc1)NC(=O)[C@@H](NC(=O)[C@H](CCCCN)NC(=O)[C@H](CCC(=O)O)NC(=O)[C@@H](NC(=O)CNC(=O)[C@H](C)N)[C@@H](C)O)[C@@H](C)CC)[C@@H](C)O)[C@@H](C)CC)C(=O)N[C@@H](C)C(=O)N[C@@H](CCCCN)C(=O)N[C@@H](CCCNC(=N)N)C(=O)N[C@@H](C)C(=O)N[C@@H](Cc1c[nH]c2ccccc12)C(=O)O [Syn-larvacin-48] (H-AGTEKIFNRLKKTINEWKKIAKRAW-OH; N-terminus and C-terminus assumed)	4	8	8	32
32		>128	>128	16	CC[C@H](C)[C@H](NC(=O)[C@H](Cc1ccccc1)NC(=O)[C@H](C)NC(=O)[C@H](CCCCN)NC(=O)[C@H](CCCCN)NC(=O)CNC(=O)[C@H](CCCNC(=N)N)NC(=O)[C@H](CCCCN)NC(=O)[C@H](CCCNC(=N)N)NC(=O)[C@H](CC(C)C)NC(=O)[C@H](CCC(=O)O)NC(=O)[C@H](CCC(=O)O)NC(=O)[C@H](CCCCN)NC(=O)[C@H](CC(C)C)NC(=O)[C@H](Cc1ccc(O)cc1)NC(=O)[C@H](CC(C)C)NC(=O)[C@@H](NC(=O)[C@H](CC(C)C)NC(=O)[C@H](C)NC(=O)[C@H](CCC(N)=O)NC(=O)[C@H](CCCNC(=N)N)NC(=O)CNC(=O)[C@H](C)N)[C@@H](C)O)C(=O)N[C@@H](C)C(=O)N[C@@H](Cc1c[nH]c2ccccc12)C(=O)O [Syn-xiamencin-1] (H-AGRQALTLYLKEELRKRGKKAFIAW-OH; N-terminus and C-terminus assumed)	32	16	>128	>128
16	0.25	>128	>128		CC[C@H](C)[C@H](NC(=O)[C@H](CCCNC(=N)N)NC(=O)[C@H](C)NC(=O)[C@H](CCCCN)NC(=O)[C@H](CCCCN)NC(=O)CNC(=O)[C@H](Cc1ccccc1)NC(=O)[C@H](CCCCN)NC(=O)[C@H](CCCNC(=N)N)NC(=O)[C@H](CC(C)C)NC(=O)[C@H](CCC(=O)O)NC(=O)[C@H](CCC(=O)O)NC(=O)[C@H](CCCCN)NC(=O)[C@H](CC(C)C)NC(=O)[C@H](Cc1ccc(O)cc1)NC(=O)[C@H](CC(C)C)NC(=O)[C@@H](NC(=O)[C@H](CC(C)C)NC(=O)[C@H](C)NC(=O)[C@H](CCC(N)=O)NC(=O)[C@H](CCCNC(=N)N)NC(=O)CNC(=O)[C@@H](N)Cc1c[nH]c2ccccc12)[C@@H](C)O)C(=O)N[C@@H](C)C(=O)N[C@@H](Cc1c[nH]c2ccccc12)C(=O)O [Syn-xiamencin-13] (H-WGRQALTLYLKEELRKFGKKARIAW-OH; N-terminus and C-terminus assumed)	32	0.25	>128	>128
1		32	16	2	CC[C@H](C)[C@H](NC(=O)[C@H](CCCNC(=N)N)NC(=O)[C@H](C)NC(=O)[C@H](CCCCN)NC(=O)[C@H](CCCNC(=N)N)NC(=O)CNC(=O)[C@@H](NC(=O)[C@H](CCCCN)NC(=O)[C@H](CCCNC(=N)N)NC(=O)[C@@H](NC(=O)[C@H](CCC(=O)O)NC(=O)[C@H](CCCNC(=N)N)NC(=O)[C@H](CCCNC(=N)N)NC(=O)[C@H](CC(C)C)NC(=O)[C@H](Cc1ccc(O)cc1)NC(=O)[C@H](C)NC(=O)[C@H](CCCCN)NC(=O)[C@@H](NC(=O)[C@H](Cc1c[nH]c2ccccc12)NC(=O)[C@H](CCC(N)=O)NC(=O)[C@H](CCCNC(=N)N)NC(=O)CNC(=O)[C@H](C)N)[C@@H](C)CC)[C@@H](C)CC)C(C)C)C(=O)N[C@@H](C)C(=O)N[C@@H](Cc1c[nH]c2ccccc12)C(=O)O [Syn-sordellicin-45] (H-AGRQWIKAYLRREIRKVGRKARIAW-OH; N-terminus and C-terminus assumed)	1	2	32	32
2		64	>128	1	CC[C@H](C)[C@H](NC(=O)[C@H](CCCCN)NC(=O)CNC(=O)[C@H](Cc1ccccc1)NC(=O)[C@H](CCCCN)NC(=O)[C@H](CCCNC(=N)N)NC(=O)[C@H](CC(C)C)NC(=O)[C@H](Cc1ccc(O)cc1)NC(=O)[C@H](CCC(=O)O)NC(=O)[C@H](CC(C)C)NC(=O)[C@H](CC(C)C)NC(=O)[C@H](CCC(=O)O)NC(=O)[C@H](CCCCN)NC(=O)[C@@H](NC(=O)[C@H](CC(C)C)NC(=O)[C@H](CCCNC(=N)N)NC(=O)[C@H](CCC(N)=O)NC(=O)[C@H](C)NC(=O)CNC(=O)[C@@H](N)Cc1c[nH]c2ccccc12)[C@@H](C)O)C(=O)N[C@@H](C)C(=O)N[C@@H](CCCNC(=N)N)C(=O)N[C@@H](CCCCN)C(=O)N[C@@H](C)C(=O)N[C@@H](Cc1c[nH]c2ccccc12)C(=O)O [Syn-xiamencin-15] (H-WGAQRLTKELLEYLRKFGKIARKAW-OH; N-terminus and C-terminus assumed)	2	1	128	>128
